Measurements taken from patent US20060167106A1, “Compounds acting at the centrosome” (priority 2004, published 2006).
Entries after “also recorded” stand apart in the source; their conditions may differ. Non-standard residues stand in square brackets, D forms with d. Residues, ends and D or L forms follow the SMILES beside them. *: point of attachment. Nva = CCC[C@H](N)C(=O)O; Cbz = O=C(OCc1ccccc1)*

Key:
CHO-α-tubulin-YFP cells = experiment: α-tubulin-YFP localization in CHO-α-tubulin-YFP cells (fluorescence imaging); assay type: cell-based, Chinese hamster; conditions: for accumulation of α-tubulin-YFP in the nucleus: 8 hours post-treatment; for accumulation of tubulin at the centrosomes versus in the nucleus (overall statement): cells treated, concentration not given
Source text: Wild-type Chinese Hamster Ovary cells (WT CHO) cells were maintained in Ham's F-12 medium supplemented with 10% fetal bovine serum (FBS; HyClone, Logan, Utah). Cells of low density (˜20%) growing on 2-well chambered cover-slips (Labtek (Campbell, Calif.) or Fisher Scientific) were transfected with a mammalian expression vector encoding α-tubulin-YFP (Clontech, Palo Alto, Calif.) with the use of FuGENE 6 (Roche Molecular Biochemicals, Indianapolis, Ind.), according to the manufacturer's instructions. Twenty-four hours after transfection, the cells were cultured in 400 μg/ml G418 (Invitrogen, Carlsbad, Calif.)-containing selection medium for 2 weeks. Living cells were examined using a fluorescent microscope for α-tubulin-YFP expression. Cells in single colonies containing microtubules labeled with α-tubulin-YFP were lifted and expanded in G418-containing medium. Expression of α-tubulin-YFP was confirmed by the presence of the tubulin-YFP labeled microtubule pattern identical to immunostained microtubule pattern of non-transfected cells, as well as by subjecting the cells to Western blot analysis using an anti-GFP antibody (Roche Molecular Biochemicals, Basel, Switzerland) and confirming the correct mass of the α-tubulin-YFP chimera protein. Expressed tubulin-YFP was detected as a single band in Western blots. The tubulin-YFP expressing cell lines (referred as CHO-α-tubulin-YFP cells) were used in the studies.
CHO-α-tubulin-YFP cells were cultured in 2-well chambered cover-slips (Labtek (Campbell, Calif.) or Fisher Scientific) 24 hours before treatment. For comparison of the centrosomal effects of treatment with Compound 1, Compound 1+Taxol, and Taxol, CHO-α-tubulin-YFP cells were treated with Compound 1, Compound 1+Taxol, Taxol, or equivalent concentrations of DMSO-containing media for various time periods before imaging. For comparison of the effects of Compound 1 and known proteasome inhibitors on centrosomes, the nucleus, and perinuclear regions, CHO-α-tubulin-YFP cells were treated with Compound 1, ALLN (Calbiochem, San Diego, Calif.), lactacystin (Calbiochem, San Diego, Calif.) or MG132 (Calbiochem, San Diego, Calif.), and imaged at various time points from 3 hours to 24 hours after treatment.
Tubulin-YFP fluorescence in living cells or fixed cells was captured using a standard filter for FITC and objectives of 20× or 60× magnification on a Nikon TE300 microscope with a Leica DC50 color digital camera (Leica, Bannockburn, Ill.) or a CoolSnap HQ Monochrome CCD camera (Photonetrics, Tucson, Ariz.). The Leica DC50 and CoolSnapHQ cameras were controlled with Leica DC50 software and MetaVue/MetaMorph software, respectively (Universal Imaging Corp, Downingtown, Pa.).
CHO-α-tubulin-YFP cells were cultured in 2-well chambered cover-slips (Labtek (Campbell, Calif.) or Fisher Scientific) 24 hours before treatment. For comparison of effects on the centrosome, nucleus, and perinuclear regions, cells were treated with Compound 1 and known proteasome inhibitors including ALLN, MG132, Lactacystin, MG115, clasto-Lactacystin β-Lactone (cLβL), and Epoxomicin (10 μM final concentration for all except ALLN, which was used at 100 μM final concentration) (proteasome inhibitors were from Calbiochem, San Diego, Calif.) and imaged at various time points up to 24 hours during treatment.
Tubulin-YFP fluorescence in living cells or fixed cells was captured using a standard filter for FITC and objectives of 20× or 60× magnification on the Nikon TE300 microscope/digital imaging system.

[1] = target: T1, bovine red blood cell 20S proteasome (Bos taurus, UniProt Q32KL2); experiment: 20S Proteasome Assay (in vitro, Suc-Leu-Val-Tyr-AMC); assay type: biochemical; conditions: isolated 20S proteasome
T1 construct: bovine red blood cell 20S proteasome; purchased Calbiochem; host or cells: purified from bovine red blood cells
Experimental: 190 μl of reaction buffer (500 mM HEPES, 10 nM EDTA, pH 7.6), containing 0.03% SDS was pre-incubated for 5 minutes at 37° C. in the presence of 0.2 μg of bovine red blood cell 20S proteasome (Calbiochem, San Diego, Calif.) for temperature equilibration. Subsequently, inhibitors or Compound 1 were added to the reaction mixture at a final DMSO concentration of 0.5%. The reaction was initiated by adding 10 μl of the peptide-AMC substrate (Calbiochem, San Diego, Calif.) to each well. The emitted fluorescence was then measured every third minute at 37° C. for 90 minutes by a fluorescence plate reader (FlexStation II, Molecular Devices, Sunnyvale, Calif.) at 460 nm (λex360 nm) wavelength.
The buffers and reagents for the assay were purchased from Calbiochem (20S Proteasome Assay Kit; Calbiochem, San Diego, Calif.). The principle of the assay is that the release of free AMC (7-Amino-4-methylcoumarin) following degradation of the substrate results in a fluorescent signal that is a measure of proteasome activity. The quantitative analysis of 20S proteasome activity was assayed as described.

26S proteasome = experiment: Proteasome-sensor cells (HEK-293, GFP chimera), fluorescence imaging; assay type: cell-based; conditions: HEK-293, 0.5 μM, 24 hours
Source text: Specifically, the proteasome-sensor cells are HEK-293 cells stably transfected with a vector (proteasome-sensor vector) that encodes naturally-occurring reef coral Zoanthus sp. green fluorescent protein (GFP) fused to a specific degradation motif that targets the fusion protein for removal by the 26S proteasome. The background fluorescence observed in normal cells with active proteasomes is low. When proteasomes are inhibited, the fluorescent protein quickly accumulates. […] Millennium Pharmaceuticals, Inc., Cambridge, Mass.). […] Velcade (Millennium Pharmaceuticals Inc.) was used as a positive control in this assay (at 5 nM, 50 nM, 500 nM or 5 μM). Velcade stock solution was prepared according to the manufacturer's instructions. GFP fluorescence of the cells was imaged at various time points using a standard filter for FITC with the Nikon TE300 microscope/digital imaging system described herein.

SMILES	accumulation of α-tubulin-YFP in the nucleus (CHO-α-tubulin-YFP cells; CHO cells, 10 μM)	accumulation of tubulin-YFP at the centrosomes (CHO-α-tubulin-YFP cells; CHO cells, 10 μM, 24 hours)	accumulation of tubulin at the centrosomes versus in the nucleus (overall statement) (CHO-α-tubulin-YFP cells)	also measured
CC[C@]1(O)C[C@H]2CN(CCc3c([nH]c4ccccc34)[C@@](C(=O)OC)(c3cc4c(cc3OC)N(C=O)[C@H]3[C@@](O)(C(=O)OC)[C@H](OC(C)=O)[C@]5(CC)C=CCN6CC[C@]43[C@@H]65)C2)C1 [Vincristine]	–	–	–	accumulation of tubulin-YFP at the centrosomes (CHO-α-tubulin-YFP cells; CHO cells, 1 μM, 24 hours): lack of accumulation of tubulin-YFP at the centrosomes
CC(=O)N[C@@H](CSC(=O)[C@]1([C@@H](O)C(C)C)NC(=O)[C@H](C)[C@@H]1O)C(=O)O [Lactacystin]	accumulation of α-tubulin-YFP in the nucleus; also recorded: caused the accumulation of YFP-tubulin in the nucleus	accumulation of tubulin-YFP at the centrosomes	both accumulation of tubulin at the centrosomes and in the nucleus	accumulation of α-tubulin-YFP at the centrosomes (CHO-α-tubulin-YFP cells; CHO cells, 10 μM, 5 hours): accumulation of α-tubulin-YFP at the centrosomes and perinuclear regions; accumulation of tubulin in the centrosomes (overall statement) (CHO-α-tubulin-YFP cells; CHO-tubulin-YFP cells, concentration and time not given): caused accumulation of tubulin-YFP at the centrosomes and in the perinuclear region; proteasome inhibitory activity in vitro (overall statement) [1]: exhibited proteasome inhibitory activity; proteasome activity in vitro ([1]; 5 nM): detectable decrease in proteasome activity
CN(NC(=O)CC(=O)NN(C)C(=S)c1ccccc1)C(=S)c1ccccc1 [Compound 2]	–	–	–	proteasome inhibitory activity in vitro ([1]; 50 μM): neither Compound 1 nor its salt form, Compound 2, displayed significant proteasome inhibitory activity; accumulation of proteasome-sensor protein in cells (26S proteasome): accumulation of proteasome-sensor protein in cells
CCC[C@@H](C=O)NC(=O)[C@H](CC(C)C)NC(=O)[C@H](CC(C)C)NC(=O)OCc1ccccc1 [MG115] (Cbz-Leu-Leu-[Nva]-aldehyde)	caused the accumulation of YFP-tubulin in the nucleus	–	both accumulation of tubulin at the centrosomes and in the nucleus	accumulation of α-tubulin-YFP in the nucleus (CHO-α-tubulin-YFP cells; CHO cells, 10 μM, listed as MG-115): accumulation of α-tubulin-YFP in the nucleus
CC(C)[C@H](O)[C@@]12NC(=O)[C@H](C)[C@@H]1OC2=O [clasto-Lactacystin β-Lactone]	accumulation of α-tubulin-YFP in the nucleus; also recorded: caused the accumulation of YFP-tubulin in the nucleus	–	both accumulation of tubulin at the centrosomes and in the nucleus	–
CN(NC(=O)CC(=O)NN(C)C(=S)c1ccccc1)C(=O)c1ccccc1 [Compound 3]	–	–	–	accumulation of tubulin-YFP at the centrosomes (CHO-α-tubulin-YFP cells; CHO cells, 5 μM, 4 hours): lack of accumulation of tubulin-YFP at the centrosomes
Cc1cc(NC(=O)C(=O)c2cc(Cc3ccc(C#N)cc3)n3ccccc23)sn1 [Compound 4]	–	lack of accumulation of tubulin-YFP at the centrosomes	–	–
CC[C@H](C)[C@H](NC(=O)[C@H]([C@@H](C)CC)N(C)C(C)=O)C(=O)N[C@H](C(=O)N[C@@H](CC(C)C)C(=O)[C@@]1(C)CO1)[C@@H](C)O [Epoxomicin]	accumulation of α-tubulin-YFP in the nucleus; also recorded: caused the accumulation of YFP-tubulin in the nucleus	–	both accumulation of tubulin at the centrosomes and in the nucleus	–
C/C1=C/C[C@@H](/C(C)=C/c2csc(C)n2)OC(=O)C[C@H](O)C(C)(C)C(=O)[C@H](C)[C@@H](O)[C@@H](C)CCC1 [Epothilone D]	–	lack of accumulation of tubulin-YFP at the centrosomes	–	–
